Drawing on US10662203B2, “Pyrido[2,3-b]indole compounds for the treatment and prophylaxis of bacterial infection” (Hoffmann-La Roche Inc., priority 2017, dated 2020), this text covers IC50 for 38 molecules.

What is called IC50 is the midpoint of a concentration-inhibition curve. Low readings indicate greater potency, high ones weaker potency.

Where only a bound is given, the exact number is not on record here.

What all share (test): 50% growth inhibitory concentration (IC50) determination assay
Holding throughout (type): cell-based

One test relates to A. baumannii (ATCC17978). The note with it: Acinetobacter baumannii, ATCC17978, A. baumannii ATCC17978; Iso-Sensitest broth; 0.098 = detection limit. The protocol:
(§1) Stock compounds in DMSO were serially two-fold diluted (range from 50 to 0.097 μM final concentration) in 384 wells microtiter plates and inoculated with 49 μL the bacterial suspension in Iso-Sensitest broth medium to have a final cell concentration of ˜5×10^5 CFU/mL in a final volume/well of 50 μL/well. Microtiter plates were incubated at 35±2° C. Bacterial cell growth was determined with the measurement of optical density at λ=600 nm each 20 minutes over a time course of 16 h. […] GP-6 (Example 4.131 disclosed in WO 2012/125746 A1) was used as the reference compound in Table 6-8. […] The data of IC50 over S. aureus (ATCC29213), K. pneumoniae (ATCC10031), and A. baumannii (ATCC17978) are illustrated in Table 6.

Test [1] deals with K. pneumoniae (ATCC10031). The note with it: Klebsiella pneumoniae, Iso-Sensitest broth, 0.098 = detection limit. The protocol: as §1
The next test has as its system S. aureus (ATCC29213). The note with it: Staphylococcus aureus, Iso-Sensitest broth, 0.098 = detection limit. As for the experimental part:
as §1

For `CNc1cc(F)c(F)c2c1[nH]c1ncc(-c3cnc4c(c3)c(=O)c(C(=O)O)cn4C)c(N(C)C)c12` [Example 1.01, 6-[4-(Dimethylamino)-5,6-difluoro-8-(methylamino)-9H-pyrido[2,3-b]indol-3-yl]-1-methyl-4-oxo-1,8-naphthyridine-3-carboxylic acid], the IC50 (with A. baumannii (ATCC17978); in test [1]; in the test with S. aureus (ATCC29213)) was below 0.098 µM throughout.
On to `CCn1cc(C(=O)O)c(=O)c2cc(-c3cnc4[nH]c5c(NC)cc(F)c(F)c5c4c3N(C)CCOC)cnc21` [Example 1.06], for which the IC50 was 0.849 µM in the test with A. baumannii (ATCC17978), 0.17 µM in test [1] and below 0.098 µM with S. aureus (ATCC29213).
As for `CNc1cc(F)c(F)c2c1[nH]c1ncc(-c3cnc4c(c3)c(=O)c(C(=O)O)cn4C)c(N3CCOCC3)c12` [Example 1.08], the IC50 in the test with A. baumannii (ATCC17978) was 0.155 µM; in test [1], below 0.098 µM; in the test with S. aureus (ATCC29213) it was below 0.098 µM.
As to `CNc1cc(F)c(F)c2c1[nH]c1ncc(-c3cnc4c(c3)c(=O)c(C(=O)O)cn4C)c(N3CCNC(C(F)(F)F)C3)c12` (stereo not shown) [Example 1.09], the IC50 in the test on A. baumannii (ATCC17978) is 0.818 µM; in test [1], 0.104 µM; with S. aureus (ATCC29213) it was below 0.098 µM.
For `CNc1cc(F)c(F)c2c1[nH]c1ncc(-c3cnc4c(c3)c(=O)c(C(=O)O)cn4C)c(N3CCOC(COC)C3)c12` (stereo not shown) [Example 1.10], the IC50 with A. baumannii (ATCC17978) came to 0.192 µM.
Turning to `CNc1cc(F)cc2c1[nH]c1ncc(-c3cnc4c(c3)c(=O)c(C(=O)O)cn4C)c(N3CCC(F)(F)C3)c12` [Example 1.16], the results for the IC50 (with A. baumannii (ATCC17978); in test [1]; in the test on S. aureus (ATCC29213)) were 0.308 µM, below 0.098 µM and below 0.098 µM, respectively.
As for `CNc1cc(F)cc2c1[nH]c1ncc(-c3cnc4c(c3)c(=O)c(C(=O)O)cn4C(C)(C)CN3CCCC3)c(N(C)C)c12` [Example 1.17], the IC50 in the test on A. baumannii (ATCC17978) is 0.515 µM; in test [1], 0.101 µM; with S. aureus (ATCC29213), below 0.098 µM.
The like results for `CCn1cc(C(=O)O)c(=O)c2cc(-c3cnc4[nH]c5c(NC)cc(F)c(F)c5c4c3N(C)C)cnc21` [Example 1.18] were, in that order, 0.326 µM, 0.132 µM and below 0.098 µM.
Take `CCn1cc(C(=O)O)c(=O)c2cc(-c3cnc4[nH]c5c(NC)cc(F)cc5c4c3N(C)C)cnc21` [Example 1.19]: the IC50 in the test with A. baumannii (ATCC17978) is 0.283 µM; in test [1] it was 0.145 µM; with S. aureus (ATCC29213), below 0.098 µM.
The like results for `CCn1cc(C(=O)O)c(=O)c2cc(-c3cnc4[nH]c5c(NC)c(F)c(F)cc5c4c3N(C)C)cnc21` [Example 1.20] were, in that order, 0.209 µM, 0.141 µM and below 0.098 µM.
Taken in the same sequence, the figures for `CNc1cc(F)c(F)c2c1[nH]c1ncc(-c3cnc4c(c3)c(=O)c(C(=O)O)cn4C3CCOC3)c(N(C)C)c12` (stereo not shown) [Example 1.21] were 0.469 µM, 0.154 µM and below 0.098 µM.
For `CNc1cc(F)c(F)c2c1[nH]c1ncc(-c3cnc4c(c3)c(=O)c(C(=O)O)cn4CCOC)c(N(C)C)c12` [Example 1.24], the IC50 in the test with A. baumannii (ATCC17978) was 0.519 µM; in test [1], 0.238 µM; with S. aureus (ATCC29213) it was below 0.098 µM.
As for `CNc1cc(F)c(F)c2c1[nH]c1ncc(-c3cnc4c(c3)c(=O)c(C(=O)O)cn4CCN3CCN(C)CC3)c(N(C)C)c12` [Example 1.29], the IC50 in the test with A. baumannii (ATCC17978) was 0.405 µM; in test [1], below 0.098 µM; in the test on S. aureus (ATCC29213) it was below 0.098 µM.
For `CNc1cc(F)c(F)c2c1[nH]c1ncc(-c3cnc4c(c3)c(=O)c(C(=O)O)cn4Cc3ccncc3)c(N(C)C)c12` [Example 1.30], the IC50 in the test with A. baumannii (ATCC17978) was 0.242 µM; in the test on S. aureus (ATCC29213), below 0.098 µM.
As to `CNc1cc(F)c(F)c2c1[nH]c1ncc(-c3cnc4c(c3)c(=O)c(C(=O)O)cn4C)c(N(C)CCOC)c12` [Example 1.33], the values for the IC50 (in the test with A. baumannii (ATCC17978); in test [1]; with S. aureus (ATCC29213)) were 0.252 µM, below 0.098 µM and below 0.098 µM, respectively.
In the case of `CNc1cc(F)c(F)c2c1[nH]c1ncc(-c3cnc4c(c3)c(=O)c(C(=O)O)cn4C)c(N3CCO[C@@H](C)C3)c12` [Example 1.36], the IC50 was 0.147 µM with A. baumannii (ATCC17978), below 0.098 µM in test [1] and below 0.098 µM in the test with S. aureus (ATCC29213).
In the case of `CNc1cc(F)c(F)c2c1[nH]c1ncc(-c3cnc4c(c3)c(=O)c(C(=O)O)cn4CC3CCCO3)c(N3CCOCC3)c12` (stereo not shown) [Example 1.39], the IC50 in the test with A. baumannii (ATCC17978) is 0.363 µM; in test [1] it was 0.19 µM; in the test with S. aureus (ATCC29213) it was below 0.098 µM.
Take `CNc1cc(F)c(F)c2c1[nH]c1ncc(-c3cnc4c(c3)c(=O)c(C(=O)O)cn4C)c(N3CCC(OC)CC3)c12` [Example 1.40]: the figures for the IC50 (in the test with A. baumannii (ATCC17978); in test [1]; with S. aureus (ATCC29213)) were 0.364 µM, 0.264 µM and below 0.098 µM, respectively.
Taken in the same sequence, the figures for `CNc1cc(F)cc2c1[nH]c1ncc(-c3cnc4c(c3)c(=O)c(C(=O)O)cn4C)c(N3CCCC3)c12` [Example 1.46] were 0.277 µM, below 0.098 µM and below 0.098 µM.
Turning to `CNc1cc(F)cc2c1[nH]c1ncc(-c3cnc4c(c3)c(=O)c(C(=O)O)cn4C)c(N3CCOCC3)c12` [Example 1.48], the 50% inhibitory concentration (IC50) is 0.11 µM with A. baumannii (ATCC17978), below 0.098 µM in test [1] and below 0.098 µM with S. aureus (ATCC29213).
For the molecule `CNc1cc(F)cc2c1[nH]c1ncc(-c3cnc4c(c3)c(=O)c(C(=O)O)cn4C)c(N3CCO[C@H](C)C3)c12` [Example 1.49], the IC50 in the test with A. baumannii (ATCC17978) was 0.112 µM; in test [1], below 0.098 µM; in the test on S. aureus (ATCC29213), below 0.098 µM.
Take `CNc1cc(F)cc2c1[nH]c1ncc(-c3cnc4c(c3)c(=O)c(C(=O)O)cn4C)c(N3CCO[C@@H](C)C3)c12` [Example 1.50]: the IC50 is 0.112 µM in the test on A. baumannii (ATCC17978), below 0.098 µM in test [1] and below 0.098 µM with S. aureus (ATCC29213).
As for `CNc1cc(F)cc2c1[nH]c1ncc(-c3cnc4c(c3)c(=O)c(C(=O)O)cn4C)c(N3CCCOCC3)c12` [Example 1.60], the IC50 in the test with A. baumannii (ATCC17978) was 0.248 µM; in test [1], below 0.098 µM; in the test with S. aureus (ATCC29213), below 0.098 µM.
In turn, `CNc1cc(F)c(F)c2c1[nH]c1ncc(-c3cnc4c(c3)c(=O)c(C(=O)O)cn4C)c(N3CCC(N(C)C4CC4)C3)c12` (stereo not shown) [Example 1.116] registered an IC50 with A. baumannii (ATCC17978) of 0.355 µM.
On the same count and under the same terms, the value for `CNc1cc(F)c(Cl)c2c1[nH]c1ncc(-c3cnc4c(c3)c(=O)c(C(=O)O)cn4C)c(N(C)C)c12` [Example 1.117] was 0.164 µM; that for `CNc1cc(F)cc2c1[nH]c1ncc(-c3cnc4c(c3)c(=O)c(C(=O)O)cn4C)c(N3CCC(N(C)C4CC4)C3)c12` (stereo not shown) [Example 1.118] was 0.521 µM.
As to `CNc1cc(F)c(F)c2c1[nH]c1ncc(-c3cnc4c(c3)c(=O)c(C(=O)O)cn4C)c(N3CCC(O)(C(F)(F)F)C3)c12` (stereo not shown) [Example 1.129], the values for the concentration for half-maximal inhibition (IC50) in the test on A. baumannii (ATCC17978) and in the test on S. aureus (ATCC29213) were 0.302 µM and below 0.098 µM, respectively.
In turn, `CNc1cc(F)c(F)c2c1[nH]c1ncc(-c3cnc4c(c3)c(=O)c(C(=O)O)cn4C)c(N3C[C@H](F)[C@@H](N(C)C)C3)c12` [Example 1.159] showed an IC50 with A. baumannii (ATCC17978) of 0.189 µM.
Same read-out and setting: with `CNc1cc(F)c(F)c2c1[nH]c1ncc(-c3cnc4c(c3)c(=O)c(C(=O)O)cn4NC)c(N3CC[C@@H](N(C)C)C3)c12` [Example 1.257] the figure was 0.201 µM.
The same measure, in the same setting: the value for `CNc1cc(Cl)cc2c1[nH]c1ncc(-c3cnc4c(c3)c(=O)c(C(=O)O)cn4C)c(N3CC4[C@H](CC[C@H]4N(C)C)C3)c12` (stereo partly shown) [Example 1.285] was 0.253 µM.
Same read-out and setting: the value for `CNc1cc(F)c(F)c2c1[nH]c1ncc(-c3cnc4c(c3)c(=O)c(C(=O)O)cn4C)c(N3CC4C(O)CO[C@@H]4C3)c12` (stereo partly shown) [Example 1.287] was 0.502 µM; that for `CNc1cc(F)c(F)c2c1[nH]c1ncc(-c3cnc4c(c3)c(=O)c(C(=O)O)cn4C)c(N3CC4[C@H](CC[C@@H]4N(C)C)C3)c12` (stereo partly shown) [Example 1.288] was 0.269 µM.
For the molecule `CNc1cc(Cl)cc2c1[nH]c1ncc(-c3cnc4c(c3)c(=O)c(C(=O)O)cn4C)c(N3CC[C@H]4CN(C)C[C@H]43)c12` [Example 3.11A], in the test with A. baumannii (ATCC17978), 0.122 µM corresponded to half-maximal inhibition (IC50).
In the test with A. baumannii (ATCC17978), `CNc1cc(Cl)cc2c1[nH]c1ncc(-c3cnc4c(c3)c(=O)c(C(=O)O)cn4NC)c(N3CC[C@H]4CN(C)C[C@H]43)c12` [Example 3.12A] returned an IC50 of 0.081 µM.
For `CNc1cc(Cl)cc2c1[nH]c1ncc(-c3cnc4c(c3)c(=O)c(C(=O)O)cn4C)c(N3C[C@H]4CC[C@H](N(C)C)[C@H]4C3)c12` [Example 3.20A], the IC50 in the test on A. baumannii (ATCC17978) came to 0.149 µM.
In the test on A. baumannii (ATCC17978), `CNc1cc(Cl)cc2c1[nH]c1ncc(-c3cnc4c(c3)c(=O)c(C(=O)O)cn4C)c(N3C[C@@H]4CC[C@H](N(C)C)[C@@H]4C3)c12` [Example 3.20B] had an IC50 of 0.252 µM.
The same measure, in the same setting: the value for `CNc1cc(F)c(F)c2c1[nH]c1ncc(-c3cnc4c(c3)c(=O)c(C(=O)O)cn4C)c(N3CCN[C@H](C(F)(F)F)C3)c12` [Example 4.01A, (S)-6-(5,6-Difluoro-8-(methylamino)-4-(3-(trifluoromethyl)piperazin-1-yl)-9H-pyrido[2,3-b]indol-3-yl)-1-methyl-4-oxo-1,4-dihydro-1,8-naphthyridine-3-carboxylic acid] was 0.393 µM; that for `CNc1cc(F)c(F)c2c1[nH]c1ncc(-c3cnc4c(c3)c(=O)c(C(=O)O)cn4C)c(N3CCN[C@@H](C(F)(F)F)C3)c12` [Example 4.01B, (R)-6-(5,6-Difluoro-8-(methylamino)-4-(3-(trifluoromethyl)piperazin-1-yl)-9H-pyrido[2,3-b]indol-3-yl)-1-methyl-4-oxo-1,4-dihydro-1,8-naphthyridine-3-carboxylic acid] was 0.352 µM.
